Measured values: ChEMBL document CHEMBL3045577, “Synthesis and anti-HIV activity evaluation of novel N-arylidene-2-[1-(naphthalen-1-yl)-1H-tetrazol-5-ylthio]acetohydrazides” (Med Chem Res, 2010)

How the values were obtained:
[1] = Selectivity index, ratio of CC50 for human MT4 cells to EC50 for HIV-2 ROD infected in MT4 cells; assay type: toxicity, cell-based; details: read-out: Ratio CC50/EC50
[2] = Selectivity index, ratio of CC50 for human MT4 cells to EC50 for HIV-1 3B infected in MT4 cells; assay type: toxicity, cell-based; details: read-out: Ratio CC50/EC50
[3] = Cytotoxicity against Homo sapiens (human) MT4 cells by MTT assay; assay type: cell-based
[4] = system: Human immunodeficiency virus 2; assay: Antiviral activity against Human immunodeficiency virus type 2 (ISOLATE ROD) infected human MT4 cells assessed as inhibition of virus-induced cytopathicity after 4 days by MTT assay; assay type: functional, organism-based; details: Human immunodeficiency virus 2, ISOLATE ROD, MT4, 96 h
[5] = system: Human immunodeficiency virus 1; assay: Antiviral activity against Human immunodeficiency virus 1 IIIB infected human MT4 cells assessed as inhibition of virus-induced cytopathicity after 4 days by MTT assay; assay type: functional, organism-based; details: MT4, 96 h

SMILES | selectivity ratio [1] | selectivity ratio [2] | CC50 [3] | EC50 [4] | EC50 [5]
O=C(CSc1nnnn1-c1cccc2ccccc12)N/N=C/c1ccccc1 | < 1 | ≤ 10 | 216 µM | > 229 µM | ≥ 21.4 µM
O=C(CSc1nnnn1-c1cccc2ccccc12)N/N=C/c1cccc(O)c1 | < 1 | 6 | 169 µM | > 169 µM | 29.6 µM
O=C(CSc1nnnn1-c1cccc2ccccc12)N/N=C/c1ccc(F)cc1 | 1 | 1 | > 308 µM | > 308 µM | > 308 µM
O=C(CSc1nnnn1-c1cccc2ccccc12)N/N=C/c1ccc(O)cc1 | 1 | > 9 | > 309 µM | > 309 µM | 31.6 µM
COc1cccc(/C=N/NC(=O)CSc2nnnn2-c2cccc3ccccc23)c1OC | < 1 | < 1 | 192 µM | > 192 µM | > 192 µM
Cc1cn([C@H]2C[C@H](N=[N+]=[N-])[C@@H](CO)O2)c(=O)[nH]c1=O [ZIDOVUDINE] |  | > 6190 | > 93.5 µM |  | 
O=C(CSc1nnnn1-c1cccc2ccccc12)N/N=C/c1cccc(Cl)c1 | < 1 | < 1 | 240 µM | > 240 µM | > 240 µM
COc1ccc(/C=N/NC(=O)CSc2nnnn2-c2cccc3ccccc23)cc1OC | < 1 | ≤ 5 | 191 µM | > 191 µM | ≥ 36.3 µM
COc1cc(/C=N/NC(=O)CSc2nnnn2-c2cccc3ccccc23)ccc1O | 1 | 1 | > 288 µM | > 288 µM | > 288 µM
COc1ccc(O)c(/C=N/NC(=O)CSc2nnnn2-c2cccc3ccccc23)c1 | < 1 | < 1 | 4.51 µM | > 4.51 µM | > 4.51 µM
COc1ccc(/C=N/NC(=O)CSc2nnnn2-c2cccc3ccccc23)cc1 | 1 | 1 | > 299 µM | > 299 µM | > 299 µM
O=C(CSc1nnnn1-c1cccc2ccccc12)N/N=C/c1ccc(Cl)cc1 | 1 | 1 | > 296 µM | > 296 µM | > 296 µM
O=C(CSc1nnnn1-c1cccc2ccccc12)N/N=C/c1ccccc1Cl | < 1 | < 1 | 69.7 µM | > 69.7 µM | > 69.7 µM
O=C1Nc2ccc(Cl)cc2[C@@](C#CC2CC2)(C(F)(F)F)O1 [EFAVIRENZ] |  | > 1430 | > 6.34 µM |  | 
O=C(CSc1nnnn1-c1cccc2ccccc12)N/N=C/c1cccs1 | 1 | 1 | > 317 µM | > 317 µM | > 317 µM
O=C(CSc1nnnn1-c1cccc2ccccc12)N/N=C/c1ccccc1F | 1 | 1 | ≥ 118 µM | > 118 µM | > 118 µM
O=C(CSc1nnnn1-c1cccc2ccccc12)N/N=C/c1ccccc1O | < 1 | < 1 | 4.85 µM | > 4.85 µM | > 4.85 µM
Cc1cccc(/C=N/NC(=O)CSc2nnnn2-c2cccc3ccccc23)c1 | < 1 | < 1 | 269 µM | > 269 µM | > 269 µM
COc1ccc(/C=N/NC(=O)CSc2nnnn2-c2cccc3ccccc23)c(OC)c1 | < 1 | < 1 | 28.3 µM | > 28.3 µM | > 28.3 µM
CN(C)c1ccc(/C=N/NC(=O)CSc2nnnn2-c2cccc3ccccc23)cc1 | 1 | 1 | > 290 µM | > 290 µM | > 290 µM
O=C(CSc1nnnn1-c1cccc2ccccc12)N/N=C/c1ccco1 | 1 | 1 | > 330 µM | > 330 µM | > 330 µM
O=C(CSc1nnnn1-c1cccc2ccccc12)N/N=C/c1ccc([N+](=O)[O-])cc1 | 1 | 1 | ≥ 261 µM | > 261 µM | > 261 µM
CC(C)Nc1cccnc1N1CCN(C(=O)c2cc3cc(NS(C)(=O)=O)ccc3[nH]2)CC1 [DELAVIRDINE] |  | > 12 | > 3.83 µM |  | 
Cc1ccnc2c1NC(=O)c1cccnc1N2C1CC1 [NEVIRAPINE] |  |  | > 15 µM |  | 
